Measured values reported in patent US20060228313A1, “Method of cosmetic depigmentation care by applying at least one aurone” (Coletica, priority 2005, published 2006).

Key:
[1] = molecular target: T1, Human tyrosinase (Homo sapiens, UniProt P14679); experiment: Inhibition of human tyrosinase in a monolayer after application of the actives on normal human melanocytes; format: cell-based; settings: for Inhibition of human tyrosinase after application on normal human melanocytes, percentage inhibition: 24 hours
T1 construct: Normal human melanocytes (originating from abdominal plasty) are sown in a 24-well plate; endogenous in cells; host or cells: normal human melanocytes (abdominal plasty; donors of light, brown and black phototype)
T1 sequence (P14679 19-529): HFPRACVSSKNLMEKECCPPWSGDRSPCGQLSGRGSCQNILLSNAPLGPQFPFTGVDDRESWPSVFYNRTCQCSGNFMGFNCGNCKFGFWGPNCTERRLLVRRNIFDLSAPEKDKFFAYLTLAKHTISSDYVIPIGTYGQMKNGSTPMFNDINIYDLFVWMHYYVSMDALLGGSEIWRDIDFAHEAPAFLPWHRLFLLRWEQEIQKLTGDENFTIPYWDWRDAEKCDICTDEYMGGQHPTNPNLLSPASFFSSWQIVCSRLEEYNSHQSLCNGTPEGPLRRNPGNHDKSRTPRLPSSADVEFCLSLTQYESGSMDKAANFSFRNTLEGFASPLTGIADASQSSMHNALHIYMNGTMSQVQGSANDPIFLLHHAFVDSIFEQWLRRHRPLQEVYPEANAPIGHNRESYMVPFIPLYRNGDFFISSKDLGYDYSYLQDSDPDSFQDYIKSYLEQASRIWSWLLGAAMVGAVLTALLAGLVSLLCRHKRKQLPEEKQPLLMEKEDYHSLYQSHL
Description: Normal human melanocytes (originating from abdominal plasty) are sown in a 24-well plate at the rate of 80,000 cells per well. They are cultivated up to confluence and the actives are applied for 24 hours in the culture media. After 24 hours, the media are removed and the melanocytes are picked up by mechanical action. An extraction is made by heat shock and the supernatants are then recovered and then incubated with MBTH (Sigma) and L-Dopa (Sigma). The OD at 490 nm is measured after 30 minutes, and the inhibition is of the tyrosinase is calculated by comparing the OD at 490 nm to the protein level (measured in each culture well) of the test with respect to the ratio: OD 490 nm/concentration of protein of the negative control (non-treated control). […]

[2] = system: normal human melanocytes; experiment: Cytotoxicity on normal human melanocytes, PNPP determination; format: cell-based; settings: 24 hours
Description: The cytotoxicity of the actives is studied on normal human melanocytes in a 24-well plate by a determination with PNPP(P-nitrophenyl phosphate), a substance which is converted into p-nitrophenol by the intracellular acid phosphatases of viable cells.
The absorbance of p-nitrophenol at 405 nm is directly proportional to the number of viable cells.
The actives are tested at 2 different concentrations (10^−4 M and 10^−5 M) and are added to the culture medium and are incubated at 37° C. for 24 hours. The determination with PNPP is carried out on a cell mat and the results are expressed as a percentage viability with respect to the negative control (non-treated wells).

Inhibition of human tyrosinase after application on normal human melanocytes, percentage inhibition ([1]; 10^−4M) [%]	Inhibition of human tyrosinase after application on normal human melanocytes, percentage inhibition ([1]; 10^−5M) [%]	Inhibition of human tyrosinase on normal human melanocytes, result in words ([1]; model of Example 15)	SMILES	Percentages viability on normal human melanocytes ([2]; 10^−4 M) [%]	Percentages viability on normal human melanocytes ([2]; 10^−5 M) [%]
28.5	13.4		CCc1ccc(/C=C2\Oc3cc(O)cc(O)c3C2=O)o1 [Example 7n, (Z)-4,6-Dihydroxy-2-[(5-ethylfuran)methylene]benzofuran-3(2H)-one]		
0	25.1		CC(C)(C)c1ccc(/C=C2\Oc3cc(O)cc(O)c3C2=O)cc1 [Example 7k]		
			COc1cc(OC)c2c(c1)O/C(=C\c1ccc(O)cc1)C2=O [Example 5a, (Z)-4,6-dimethoxy-2-(4′-hydroxybenzylidene)benzofuran-3(2H)-one]	104.53	90.87
			CCc1ccc(/C=C2\Oc3cc(OC)cc(OC)c3C2=O)cc1 [Example 5b, (Z)-4,6-dimethoxy-2-(4′-ethylbenzylidene)benzofuran-3(2H)-one]		99.62
23.6	6.4		O=C1/C(=C/c2ccco2)Oc2cc(O)cc(O)c21 [Example 7m, (Z)-4,6-Dihydroxy-2-[(furan)methylene]benzofuran-3(2H)-one]		
0	0		CCc1ccccc1/C=C1\Oc2cc(O)ccc2C1=O [Example 3b, (Z)-2-(2′-Ethyl)Benzylidene-6-Hydroxybenzofuran-3(2H)-one]		
31.3	6.4		COc1cc(OC)c2c(c1)O/C(=C\c1cccs1)C2=O [Example 5p, (Z)-4,6-Dimethoxy-2-[(thiophene)methylene]benzofuran-3(2H)-one]		
11.9	2.1		CCc1ccc(/C=C2\Oc3cc(OC)cc(OC)c3C2=O)s1 [Example 5r, (Z)-4,6-Dimethoxy-2-[(5-ethylthiophene)methylene]benzofuran-3(2H)-one]		
13.6	4.5		Cc1cc(/C=C2\Oc3cc(O)cc(O)c3C2=O)oc1C [Example 7o, (Z)-4,6-Dihydroxy-2-[(4,5-dimethylfuran)methylene]benzofuran-3(2H)-one]		
0	23.9		CCc1ccc(/C=C2\Oc3cc(O)ccc3C2=O)cc1 [Example 3a, (Z)-2-(4′-Ethyl)Benzylidene-6-Hydroxybenzofuran-3(2H)-one]		
26.4	0		Cc1cc(C)c(/C=C2\Oc3cc(O)cc(O)c3C2=O)[nH]1 [Example 7t, (Z)-4,6-Dihydroxy-2-[(3,5-dimethylpyrrole)methylene]benzofuran-3(2H)-one]		
0	31.86		CC(C)c1ccc(/C=C2\Oc3cc(O)cc(O)c3C2=O)cc1 [Example 7i]		
5.43	26.88		CCCc1ccc(/C=C2\Oc3cc(O)cc(O)c3C2=O)cc1 [Example 7h]		
0	1.44		COc1cc(OC)c2c(c1)O/C(=C\c1ccc(S(=O)(=O)O)cc1)C2=O [Example 5e, (Z)-4,6-dimethoxy-2-(4′-sulfonatebenzylidene)benzofuran-3(2H)-one]		
4.8	0		COc1cc(OC)c2c(c1)O/C(=C\c1ccc(C)s1)C2=O [Example 5q, (Z)-4,6-Dimethoxy-2-[(5-methylthiophene)methylene]benzofuran-3(2H)-one]		
9.36	2.88		COc1cc(OC)c2c(c1)O/C(=C\c1ccc(S(=O)(=O)O)cc1S(=O)(=O)O)C2=O [Example 5f, (Z)-4,6-dimethoxy-2-(2′,4′-disulfonatebenzylidene)benzofuran-3(2H)-one]		
0	6.1		CCc1ccccc1/C=C1\Oc2cc(O)cc(O)c2C1=O [Example 7l]		
16.4	7		Cc1ccc(/C=C2\Oc3cc(O)cc(O)c3C2=O)s1 [Example 7q, (Z)-4,6-Dihydroxy-2-[(5-methylthiophene)methylene]benzofuran-3(2H)-one]		
13.8	0		CCc1ccc(/C=C2\Oc3cc(O)cc(O)c3C2=O)s1 [Example 7r, (Z)-4,6-Dihydroxy-2-[(5-ethylthiophene)methylene]benzofuran-3(2H)-one]		
0	4.83		O=C1/C(=C/c2ccc(S(=O)(=O)O)cc2)Oc2cc(O)cc(O)c21 [Example 7e]		
		do not inhibit tyrosinase	O=c1cc(-c2ccc(O)cc2)oc2cc(O)cc(O)c12 [Apigenin, reference compound]		
7.8	0		CCc1ccc(/C=C2\Oc3cc(OC)cc(OC)c3C2=O)o1 [Example 5n, (Z)-4,6-Dimethoxy-2-[(5-ethylfuran)methylene]benzofuran-3(2H)-one]		
5.1	0		COc1cc(OC)c2c(c1)O/C(=C\c1[nH]c(C)cc1C)C2=O [Example 5t, (Z)-4,6-Dimethoxy-2-[(3,5-dimethylpyrrole)methylene]benzofuran-3(2H)-one]		
23.2	12.1		COc1cc(OC)c2c(c1)O/C(=C\c1cc(C)c(C)o1)C2=O [Example 5o, (Z)-4,6-Dimethoxy-2-[(4,5-dimethylfuran)methylene]benzofuran-3(2H)-one]		
12.85	4.32		O=C1/C(=C/c2ccccc2O)Oc2cc(O)cc(O)c21 [Example 9c]		
19.5	6.4		COc1cc(OC)c2c(c1)O/C(=C\c1ccco1)C2=O [Example 5m, (Z)-4,6-Dimethoxy-2-[(furan)methylene]benzofuran-3(2H)-one]		

SMILES	Inhibition of human tyrosinase after application on normal human melanocytes, percentage inhibition ([1]; 10^−4M) [%]	Inhibition of human tyrosinase after application on normal human melanocytes, percentage inhibition ([1]; 10^−5M) [%]	Inhibition of human tyrosinase on normal human melanocytes, result in words ([1]; model of Example 15)	Percentages viability on normal human melanocytes ([2]; 10^−4 M) [%]	Percentages viability on normal human melanocytes ([2]; 10^−5 M) [%]
O=C1/C(=C/c2ccc[nH]2)Oc2cc(O)cc(O)c21 [Example 7s, (Z)-4,6-Dihydroxy-2-[(pyrrole)methylene]benzofuran-3(2H)-one]	22.8	9.1			
COc1cc(OC)c2c(c1)O/C(=C\c1ccc[nH]1)C2=O [Example 5s, (Z)-4,6-Dimethoxy-2-[(pyrrole)methylene]benzofuran-3(2H)-one]	13.7	0			
O=C1/C(=C/c2cccs2)Oc2cc(O)cc(O)c21 [Example 7p, (Z)-4,6-Dihydroxy-2-[(thiophene)methylene]benzofuran-3(2H)-one]	35.2	15.3			
